# Experimental data taken from patent publication US11298367B2, “Prodrugs of substituted triazole derivatives and uses thereof” (Bayer Aktiengesellschaft, priority 2017, dated 2022).
# Tests used:
# [1] = molecular target: T1, human V2 receptor (Homo sapiens, UniProt P30518); test: Cellular in vitro assay for vasopressin receptor activity (V2, CRE-luciferase); format: cell-based; settings: CHO cell line with human V2 receptor, [Arg8]-vasopressin at EC50; values are for the prodrug as such; read-out: IC50 hV2
# T1 construct: expressed in transfected cells; host or cells: CHO K1 cells expressing firefly luciferase under a CRE-responsive promoter
# T1 sequence (P30518 whole entry): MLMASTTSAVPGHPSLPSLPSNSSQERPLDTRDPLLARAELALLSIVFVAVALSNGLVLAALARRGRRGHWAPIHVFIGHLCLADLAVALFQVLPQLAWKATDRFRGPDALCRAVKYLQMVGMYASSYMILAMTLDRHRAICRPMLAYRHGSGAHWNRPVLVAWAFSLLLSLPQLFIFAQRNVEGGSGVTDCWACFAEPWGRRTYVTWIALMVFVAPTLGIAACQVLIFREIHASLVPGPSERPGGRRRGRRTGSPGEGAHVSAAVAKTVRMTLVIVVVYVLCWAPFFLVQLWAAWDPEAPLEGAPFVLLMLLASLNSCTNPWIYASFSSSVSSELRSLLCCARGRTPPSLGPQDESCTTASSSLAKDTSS
# Description: B-1. Cellular In Vitro Assay for Determining Vasopressin Receptor Activity
# The identification of agonists and antagonists of the V1a and V2 vasopressin receptors from humans, rats and dogs as well as the quantification of the activity of the compounds of the invention is carried out using recombinant cell lines. These cell lines originally derive from a hamster's ovary epithelial cell (Chinese Hamster Ovary, CHO K1, ATCC: American Type Culture Collection, Manassas, Va. 20108, USA). The test cell lines constitutively express the human, rat or dog V1a or V2 receptors. In case of the Gaq-coupled V1a receptors, cells are also stably transfected with a modified form of the calcium-sensitive photoproteins aequorin (human and rat V1a) or obelin (dog V1a), which, after reconstitution with the cofactor coelenterazine, emit light when there are increases in free calcium concentrations [Rizzuto R, Simpson A W, Brini M, Pozzan T, Nature 358, 325-327 (1992); Illarionov B A, Bondar V S, Illarionova V A, Vysotski E S, Gene 153 (2), 273-274 (1995)]. The resulting vasopressin receptor cells react to stimulation of the recombinantly expressed Via receptors by intracellular release of calcium ions, which can be quantified by the resulting photoprotein luminescence. The Gs-coupled V2 receptors are stably transfected into cell lines expressing the gene for firefly luciferase under control of a CRE-responsible promoter. Activation of V2 receptors induces the activation of the CRE-responsive promoter via cAMP increase, thereby inducing the expression of firefly luciferase. The light emitted by photoproteins of V1a cell lines as well as the light emitted by firefly luciferase of V2 cell lines corresponds to the activation or inhibition of the respective vasopressin receptor. The bioluminescence of the cell lines is detected using a suitable luminometer [Milligan G, Marshall F, Rees S, Trends in Pharmacological Sciences 17, 235-237 (1996)].
# Vasopressin V2 Receptor Cell Lines:
# On the day before the assay, the cells are plated out in culture medium (DMEM/F12, 2% FCS, 2 mM glutamine, 10 mM HEPES) in 384-well microtiter plates and kept in a cell incubator (96% humidity, 5% v/v CO2, 37C). On the day of the assay, test compounds in various concentrations and the agonist [Arg^8]-vasopressin at EC50 concentration are added together to the wells, and plates are incubated for 3 hours in a cell incubator. Upon addition of the cell lysis reagent Triton™ and the substrate luciferin, luminescence of firefly luciferase is measured in a luminometer.
# Table 1A below lists individual IC50 values for the compounds of the invention (including racemic mixtures as well as separated enantiomers) that were obtained from cell lines transfected with the human V1a or V2 receptor. This means these IC50 values are the values for the prodrug and not for the underlying respective drug as the prodrug is mainly stable under the assay conditions.
# [2] = pH stability; format: physicochemical
# Description: 0.15 mg of the test compound is dissolved in 0.1 ml dimethylsulfoxide and 0.4 ml acetonitrile. For complete dissolution the HPLC vial with the sample solution is shaken and treated with ultrasonic irradiation. Then 1.0 ml of the respective buffer solution is added and the sample is vortexed. The sample solution is analyzed by HPLC to determine the amount of the test compound at a particular time over a period of 24 h at 37° C. The peak areas in percentage are used for quantification.
# pH 4.0: Fluka buffer, Order No. 33643 (11.76 g citric acid, 2.57 g sodium chloride and 2.72 g sodium hydroxide).
# pH 7.4: 90 g of sodium chloride, 13.61 g of potassium dihydrogen phosphate and 83.35 g of 1 M sodium hydroxide solution are made up to 1 litre with Millipore water and then diluted 1:10. Adjust with phosphoric acid to pH=7.4.
# pH 10: Fluka buffer, Order No. 33649 (4.77 g Borax, 0.73 g sodium hydroxide).
# 15 μl portions of the sample solution are analysed by HPLC at different times (0 h, 1 h, 2 h, 4 h and 24 h) at 37° C. The peak areas in percentage are used for quantification.
# The ratios of the peak area (F) at different times in relation to the peak area at the starting point are shown in Table 8A for representative examples: […]
# [3] = molecular target: T2, human V1a receptor (Homo sapiens, UniProt P37288); test: Cellular in vitro assay for vasopressin receptor activity (V1a, aequorin luminescence); format: cell-based; settings: for IC50: CHO cell line with human V1a receptor, [Arg8]-vasopressin at EC50, values are for the prodrug as such, read-out: IC50 hV1a; for ratio IC50 hV2/hV1a: selectivity ratio hV2/hV1a
# T2 construct: expressed in transfected cells; host or cells: CHO K1 (Chinese hamster ovary), also stably transfected with a modified aequorin
# T2 sequence (P37288 whole entry): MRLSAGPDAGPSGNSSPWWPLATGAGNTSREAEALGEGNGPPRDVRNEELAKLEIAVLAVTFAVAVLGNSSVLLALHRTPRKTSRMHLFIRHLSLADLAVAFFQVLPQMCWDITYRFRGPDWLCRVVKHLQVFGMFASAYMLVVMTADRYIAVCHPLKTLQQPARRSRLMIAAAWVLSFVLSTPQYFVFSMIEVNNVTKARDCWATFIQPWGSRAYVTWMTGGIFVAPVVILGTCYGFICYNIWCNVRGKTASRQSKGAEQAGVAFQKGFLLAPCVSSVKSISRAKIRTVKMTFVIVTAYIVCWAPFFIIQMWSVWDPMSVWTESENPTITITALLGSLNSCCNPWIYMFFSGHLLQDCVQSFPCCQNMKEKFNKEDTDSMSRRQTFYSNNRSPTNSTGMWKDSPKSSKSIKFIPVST
Compound,IC50 [1] [nM],"% Test Compound after 4 h [F(t = 4 h) × 100/F(t = 0 h)] ([2]; buffer pH 4, 37° C.) [%]","% Test Compound after 24 h [F(t = 24 h) × 100/F(t = 0 h)] ([2]; buffer pH 4, 37° C.) [%]","% Test Compound after 4 h [F(t = 4 h) × 100/F(t = 0 h)] ([2]; buffer pH 7.4, 37° C.) [%]","% Test Compound after 24 h [F(t = 24 h) × 100/F(t = 0 h)] ([2]; buffer pH 7.4, 37° C.) [%]","% Test Compound after 4 h [F(t = 4 h) × 100/F(t = 0 h)] ([2]; buffer pH 10, 37° C.) [%]","% Test Compound after 24 h [F(t = 24 h) × 100/F(t = 0 h)] ([2]; buffer pH 10, 37° C.) [%]",IC50 [3] [nM],ratio IC50 hV2/hV1a [3]
"NC(=O)c1nc(Cn2nc(-c3ccc(Cl)cc3)n(C[C@H](OP(=O)(O)O)C(F)(F)F)c2=O)nn1-c1ncccc1C(F)(F)F [Example 1, (2S)-3-[1-({5-Carbamoyl-1-[3-(trifluoromethyl)pyridin-2-yl]-1H-1,2,4-triazol-3-yl}methyl)-3-(4-chlorophenyl)-5-oxo-1,5-dihydro-4H-1,2,4-triazol-4-yl]-1,1,1-trifluoropropan-2-yl Dihydrogen Phosphate]",193,100,100,99,99,99,98,15.7,12.3
"NC(=O)c1nc(Cn2nc(-c3ccc(Cl)cc3)n(C[C@H](O)C(F)(F)F)c2=O)nn1-c1ncccc1C(F)(F)F [Example 4A, 3-({3-(4-Chlorophenyl)-5-oxo-4-[(2S)-3,3,3-trifluoro-2-hydroxypropyl]-4,5-dihydro-1H-1,2,4-triazol-1-yl}methyl)-1-[3-(trifluoromethyl)pyridin-2-yl]-1H-1,2,4-triazole-5-carboxamide]",–,–,–,–,–,–,–,–,141.0
"NC(=O)c1nc(Cn2nc(-c3ccc(Cl)cc3)n(C[C@H](OP(=O)(O)O)C(F)(F)F)c2=O)nn1-c1ccccc1C(F)(F)F [Example 10, (2S)-3-[1-({5-Carbamoyl-1-[2-(trifluoromethyl)phenyl]-1H-1,2,4-triazol-3-yl}methyl)-3-(4-chlorophenyl)-5-oxo-1,5-dihydro-4H-1,2,4-triazol-4-yl]-1,1,1-trifluoropropan-2-yl Dihydrogen Phosphate]",47,100,100,100,100,–,–,10.6,4.4
"NC(=O)c1nc(Cn2nc(-c3ccc(Cl)cc3)n(C[C@H](OP(=O)(O)O)C(F)(F)F)c2=O)nn1-c1ncccc1Cl [Example 17, (2S)-3-[1-{[5-Carbamoyl-1-(3-chloropyridin-2-yl)-1H-1,2,4-triazol-3-yl]methyl}-3-(4-chloro-phenyl)-5-oxo-1,5-dihydro-4H-1,2,4-triazol-4-yl]-1,1,1-trifluoropropan-2-yl Dihydrogen Phosphate]",130,100,100,100,100,–,–,9.8,13.3
